# Measured values from article PMC7689250, “Synthetic Peptide Libraries Designed From a Minimal Alpha-Helical Domain of AS-48-Bacteriocin Homologs Exhibit Potent Antibacterial Activity” (Frontiers in Microbiology, 2020).
# Like-named read-outs stand apart in the source and are kept apart here. Residues, ends and D or L forms follow the SMILES beside them.
# What was measured:
# E. coli (BL21) = assay type: cell-based, Escherichia coli
# How it was run: (§1)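 MIC in Mueller-Hinton broth with 1 × 10^6 CFU/mL bacteria, overnight cultures grown first in LB (E. coli, P. aeruginosa, S. aureus) or Todd-Hewitt (S. pyogenes); growth read as OD 600. Library members screened at half the parent peptide MIC; MBC as lowest concentration giving no colonies after plating MIC wells, 37°C overnight.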
# S. pyogenes (M1) = assay type: cell-based, Streptococcus pyogenes; settings: for MBC: M1
# How it was run: as §1
# S. aureus (USA300) = assay type: cell-based, Staphylococcus aureus
# How it was run: as §1
# P. aeruginosa (PAO1) = assay type: cell-based, Pseudomonas aeruginosa; settings: for MBC: PAO1; for MIC: PAO1, 16 h
# How it was run: as §1
# sheep erythrocytes = assay type: cell-based; settings: red cells of sheep, 1 h
# Procedure: To determine if peptide variants were hemolytic, fresh defibrinated whole sheep blood (Hardy Diagnostics) was washed three times in cold PBS, and washed blood was diluted 1:25 in PBS. Treatments were applied at a 1:10 ratio of sample:blood, where the sample was either 10% Triton, PBS, or a specific peptide concentration corresponding to concentrations used in the MIC assays. Treatments were incubated with the blood for 1 h at 37°C. Following incubation, samples were centrifuged at […] for 10 min at 4°C, and the absorbance of the supernatants at 450 nm was measured on the Synergy H1 Microplate Reader to measure the release of hemoglobin. Percent hemolysis was quantified by normalizing to the negative and positive controls.
SMILES,MBC (E. coli (BL21); BL21),"MIC (E. coli (BL21); BL21, 16 h)",MBC (S. pyogenes (M1)),"MIC (S. pyogenes (M1); M1, 16 h)",MBC (S. aureus (USA300); USA300),"MIC (S. aureus (USA300); USA300, 16 h)",MBC (P. aeruginosa (PAO1)),MIC (P. aeruginosa (PAO1)),Percent Hemolysis (sheep erythrocytes),MIC (S. pyogenes (M1); S. pyogenes M1),MBC (E. coli (BL21); E. coli BL21),MIC (E. coli (BL21); E. coli BL21),"MIC (S. pyogenes (M1); S. pyogenes M1, running text b43, unit printed nm)",MIC (S. aureus (USA300); USA300)
CC[C@H](C)[C@H](NC(=O)[C@H](Cc1c[nH]c2ccccc12)NC(=O)[C@H](CCC(N)=O)NC(=O)[C@H](CCCNC(=N)N)NC(=O)CNC(=O)[C@H](C)N)C(=O)N[C@@H](CCCCN)C(=O)N[C@@H](C)C(=O)N[C@@H](Cc1ccc(O)cc1)C(=O)N[C@@H](CC(C)C)C(=O)N[C@@H](CCCNC(=N)N)C(=O)N[C@@H](CCCNC(=N)N)C(=O)N[C@@H](CCC(=O)O)C(=O)N[C@H](C(=O)N[C@@H](CCCNC(=N)N)C(=O)N[C@@H](CCCCN)C(=O)N[C@@H](CCCNC(=N)N)C(=O)NCC(=O)N[C@@H](CCCNC(=N)N)C(=O)N[C@@H](CCCCN)C(=O)N[C@@H](C)C(=O)N[C@H](C(=O)N[C@H](C(=O)N[C@@H](C)C(=O)N[C@@H](Cc1c[nH]c2ccccc12)C(=O)O)[C@@H](C)CC)C(C)C)[C@@H](C)CC [Syn-sordellicin-41] (H-AGRQWIKAYLRREIRKRGRKAVIAW-OH; N-terminus and C-terminus assumed),2 µM,2 µM,4 µM,2 µM,>128 µM,>128 µM,16 µM,16 µM,15.5%,–,–,–,–,–
CC[C@H](C)[C@H](NC(=O)[C@H](Cc1ccccc1)NC(=O)[C@H](C)NC(=O)[C@H](CCCCN)NC(=O)[C@H](CCCCN)NC(=O)CNC(=O)[C@H](CCCNC(=N)N)NC(=O)[C@H](CCCCN)NC(=O)[C@H](CCCNC(=N)N)NC(=O)[C@H](CC(C)C)NC(=O)[C@H](CCC(=O)O)NC(=O)[C@H](CCC(=O)O)NC(=O)[C@H](CC(C)C)NC(=O)[C@H](CC(C)C)NC(=O)[C@H](Cc1ccc(O)cc1)NC(=O)[C@H](CCCCN)NC(=O)[C@@H](NC(=O)[C@H](CC(C)C)NC(=O)[C@H](C)NC(=O)[C@H](CCC(N)=O)NC(=O)[C@H](CCCNC(=N)N)NC(=O)CNC(=O)[C@H](C)N)[C@@H](C)O)C(=O)N[C@@H](Cc1c[nH]c2ccccc12)C(=O)N[C@@H](Cc1c[nH]c2ccccc12)C(=O)O [Syn-xiamencin-60] (H-AGRQALTKYLLEELRKRGKKAFIWW-OH; N-terminus and C-terminus assumed),8 µM,4 µM,4 µM,2 µM,>128 µM,>128 µM,>128 µM,>128 µM,10.9%,–,–,–,–,–
CC[C@H](C)[C@H](NC(=O)[C@H](CCCCN)NC(=O)[C@H](C)NC(=O)[C@H](CCCNC(=N)N)NC(=O)[C@H](CCCCN)NC(=O)[C@H](CCCCN)NC(=O)CNC(=O)[C@H](CCC(=O)O)NC(=O)[C@H](CCC(N)=O)NC(=O)[C@@H](NC(=O)[C@H](CCCCN)NC(=O)[C@H](CCCCN)NC(=O)[C@H](CCCCN)NC(=O)[C@H](CC(C)C)NC(=O)[C@H](Cc1ccccc1)NC(=O)[C@H](CCC(N)=O)NC(=O)[C@H](CCCNC(=N)N)NC(=O)[C@@H](NC(=O)[C@@H](NC(=O)[C@H](CCC(=O)O)NC(=O)[C@H](CCCCN)NC(=O)CNC(=O)[C@H](C)N)[C@@H](C)O)[C@@H](C)CC)[C@@H](C)CC)C(=O)N[C@@H](C)C(=O)N[C@@H](Cc1c[nH]c2ccccc12)C(=O)O [Syn-larvacin-92] (H-AGKETIRQFLKKKIQEGKKRAKIAW-OH; N-terminus and C-terminus assumed),2 µM,2 µM,1 µM,1 µM,8 µM,2 µM,128 µM,64 µM,29.9%,–,–,–,–,–
CC[C@H](C)[C@H](NC(=O)[C@H](CCC(=O)O)NC(=O)[C@H](CCCNC(=N)N)NC(=O)[C@H](CCCNC(=N)N)NC(=O)[C@H](CC(C)C)NC(=O)[C@H](Cc1ccc(O)cc1)NC(=O)[C@H](CCCCN)NC(=O)[C@H](C)NC(=O)[C@@H](NC(=O)[C@@H](NC(=O)[C@H](CCC(N)=O)NC(=O)[C@H](CCCNC(=N)N)NC(=O)[C@H](Cc1c[nH]c2ccccc12)NC(=O)[C@H](C)N)[C@@H](C)O)[C@@H](C)CC)C(=O)N[C@@H](CCCNC(=N)N)C(=O)N[C@@H](CCCCN)C(=O)N[C@@H](CCCNC(=N)N)C(=O)NCC(=O)N[C@@H](CCCNC(=N)N)C(=O)N[C@@H](CCCCN)C(=O)N[C@@H](C)C(=O)N[C@H](C(=O)N[C@H](C(=O)N[C@@H](C)C(=O)N[C@@H](Cc1c[nH]c2ccccc12)C(=O)O)[C@@H](C)CC)C(C)C [Syn-sordellicin-18] (H-AWRQTIAKYLRREIRKRGRKAVIAW-OH; N-terminus and C-terminus assumed),1 µM,1 µM,4 µM,4 µM,32 µM,32 µM,8 µM,4 µM,14.1%,–,–,–,–,–
CC[C@H](C)[C@H](NC(=O)[C@H](CCCCN)NC(=O)[C@H](CCCCN)NC(=O)CNC(=O)[C@H](CCC(=O)O)NC(=O)[C@H](CC(N)=O)NC(=O)[C@@H](NC(=O)[C@@H](NC(=O)[C@H](CCCCN)NC(=O)[C@H](CCCCN)NC(=O)[C@H](CC(C)C)NC(=O)[C@H](CCCNC(=N)N)NC(=O)[C@H](CC(N)=O)NC(=O)[C@H](Cc1ccccc1)NC(=O)[C@@H](NC(=O)[C@H](CCCCN)NC(=O)[C@H](CCC(=O)O)NC(=O)[C@@H](NC(=O)CNC(=O)[C@H](C)N)[C@@H](C)O)[C@@H](C)CC)[C@@H](C)O)[C@@H](C)CC)C(=O)N[C@@H](C)C(=O)N[C@@H](CCCCN)C(=O)N[C@@H](CCCNC(=N)N)C(=O)N[C@@H](Cc1c[nH]c2ccccc12)C(=O)N[C@@H](Cc1c[nH]c2ccccc12)C(=O)O [Syn-larvacin-72] (H-AGTEKIFNRLKKTINEGKKIAKRWW-OH; N-terminus and C-terminus assumed),0.25 µM,0.25 µM,2 µM,–,>128 µM,>128 µM,64 µM,32 µM,26.3%,0.125 µM,–,–,–,–
CC[C@H](C)[C@H](NC(=O)[C@H](CCCCN)NC(=O)[C@H](CCCCN)NC(=O)CNC(=O)[C@H](CCC(=O)O)NC(=O)[C@H](CCC(N)=O)NC(=O)[C@@H](NC(=O)[C@@H](NC(=O)[C@H](CCCCN)NC(=O)[C@H](CCCCN)NC(=O)[C@H](CC(C)C)NC(=O)[C@H](CCCNC(=N)N)NC(=O)[C@H](CCC(N)=O)NC(=O)[C@H](Cc1ccccc1)NC(=O)[C@@H](NC(=O)[C@H](CCCCN)NC(=O)[C@H](CCC(=O)O)NC(=O)[C@@H](NC(=O)CNC(=O)[C@H](C)N)[C@@H](C)O)[C@@H](C)CC)[C@@H](C)O)[C@@H](C)CC)C(=O)N[C@@H](C)C(=O)N[C@@H](CCCCN)C(=O)N[C@@H](CCCNC(=N)N)C(=O)N[C@@H](Cc1c[nH]c2ccccc12)C(=O)N[C@@H](Cc1c[nH]c2ccccc12)C(=O)O [Syn-larvacin-71] (H-AGTEKIFQRLKKTIQEGKKIAKRWW-OH; N-terminus and C-terminus assumed),–,–,0.125 µM,–,<0.25 µM,<0.25 µM,32 µM,16 µM,20.6%,0.125 µM,0.25 µM,0.25 µM,0.125 µM,0.25 µM
